# Measurements taken from patent US20220249599A1, “TREATMENT OF IMPLANTS WITH ENGINEERED ANTIMICROBIAL AMPHIPHILIC PEPTIDES” (priority 2018, published 2022).
# Values joined by “and” are separate entries in the source; they are usually repeats but may differ in a detail not shown here. Equal values may be shown once. Read-outs that look alike come from different tables or passages of the source. Marks after values point to notes of the source that are not given here. Ends that are not written are not given here.
# Assays:
# [1] = system: Acinetobacter baumannii ATCC BAA-1797 (MDR); test: microbe, parasite or virus in culture; assay type: cell-based; conditions: ATCC BAA-1797
# How it was run: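 Peptides, formulated in PBS (two in DMSO with 0.002% polysorbate-80, giving 2.5% DMSO at the top dilution), are 2-fold serially diluted from 32 mcg/mL final into MHB II with 0.002% P80. A CLSI-standardized inoculum is added, plates incubate 16–20 hrs at 35° C., and visible growth is scored.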
# [2] = monkey
# Description: Animals will be obtained from the Test Facility's colony of adult male cynomolgous monkeys (Macaca fascicularis) of Chinese origin. Animals will be weighed prior to dosing.
# Intravenous administration will be via 30 minute infusion into a temporary percutaneous catheter placed into a saphenous vein. Prior to and following dose administration, the catheter will be flushed with 0.5 mL saline prior to removal. All dosing syringes will be weighed prior to and following dosing.
# Serial blood samples will be collected via femoral vein (cephalic or saphenous, as necessary). Approximately 1 mL blood samples will be collected into K2EDTA tubes.
# Blood samples will be collected into K2EDTA tubes and stored on wet ice. Whole blood will be processed to plasma by centrifugation (2400-2700 rpm at 5° C.) within 30 minutes of collection. Plasma samples will be split into 2 equal aliquots and stored at −80° C. until analysis.
# Prior to extraction, a known concentration of a mass-adjusted internal standard (IS) will be added to assess recovery and allow for quantitation. Purified samples will be further subjected to high-performance liquid chromatography (HPLC) using C18 300 or 130 angstrom columns prior to MS/MS analysis. Multiple charge states will be observed by MS, so MS/MS will be employed to enable multiple reaction monitoring (MRM) analyses to determine the most MRM transitions with the highest signal-to-noise gain. Compound plasma concentrations will be determined by comparing to and compensating with co-purified IS peak intensity and validated calibrated standard curves.
# Toxicokinetic parameters will be calculated using non-compartmental methods as implemented in the Phoenix® WinNonlin® ver. 6.3 comprehensive TK/PK analysis software program (Pharsight Corporation; Mountain View, Calif.) using an IV infusion model. Toxicokinetic analysis will be conducted using a 30-minute intravenous infusion time. Therefore, 30 minutes will be added to each sample time point postdose to obtain nominal time for TK analysis. Nominal times and dosage levels will be used for all calculations. Values below the lower limit of quantitation (BLQ) will be assigned a value of zero for the toxicokinetic calculations. Microsoft® Excel® 2013 will be used for receipt of bioanalytical data, minor formatting, including setting BLQ values to “0”, transfer into WinNonlin® for TK analysis, and calculation of the mean when an approximated value will be excluded. All plasma concentration data from all animals will be included in the analysis.
# [3] = system: Enterobacter spp. (n = 102); assay type: cell-based, Enterobacter aerogenes and E. cloacae
# Description: The clinical isolates were obtained from USA hospitals. […] Plates were incubated at 35° C. overnight.
# [4] = IV infusion 1 mg/kg, individual animals
# [5] = IV infusion 3 mg/kg, individual animals
# [6] = IV infusion 10 mg/kg, individual animals
# 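For AUC0-24hr in this document: adult male cynomolgus monkeys given a 30-min IV infusion, plasma drug levels quantified by LC-MS/MS against internal standard, parameters from non-compartmental IV infusion model analysis.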
# 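For AUCinf Extrapolated in this document: adult male cynomolgus monkeys given a 30-min IV infusion, plasma drug levels quantified by LC-MS/MS against internal standard, parameters from non-compartmental IV infusion model analysis.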
# 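For AUCinf in this document: adult male cynomolgus monkeys given a 30-min IV infusion, plasma drug levels quantified by LC-MS/MS against internal standard, parameters from non-compartmental IV infusion model analysis.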
# 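For AUClast in this document: adult male cynomolgus monkeys given a 30-min IV infusion, plasma drug levels quantified by LC-MS/MS against internal standard, parameters from non-compartmental IV infusion model analysis.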
substance,measurement,setting,value
RRWVRRVRRVWRRVVRVVRRWVRR-NH2 (C-terminus assumed) [SEQ ID NO: 1],MIC,[1],4 µg/mL
same,AUC0-24hr,"[2]; IV infusion 1 mg/kg, Mean",1090 ng·h/mL
same,AUCinf,"[2]; IV infusion 1 mg/kg, Mean",1170 ng·h/mL
same,AUCinf Extrapolated,"[2]; IV infusion 1 mg/kg, Mean",10.0%
same,AUClast,"[2]; IV infusion 1 mg/kg, Mean",983 ng·h/mL
same,Cmax,"[2]; IV infusion 1 mg/kg, Mean",1710 ng/mL
same,Dose Normalized AUClast,"[2]; IV infusion 1 mg/kg, Mean",983
same,Dose Normalized Cmax,"[2]; IV infusion 1 mg/kg, Mean",1710
same,T1/2,"[2]; IV infusion 1 mg/kg, Mean",2 h
same,Vss,"[2]; IV infusion 1 mg/kg, Mean",1380 mL/kg
same,AUC0-24hr,[2]; [4],821 ng·h/mL and 1820 ng·h/mL and 616 ng·h/mL
same,AUCinf,[2]; [4],938* hr*ng/mL and 1730 hr*ng/mL and 610 hr*ng/mL
same,AUClast,[2]; [4],740 ng·h/mL and 1610 ng·h/mL and 595 ng·h/mL
same,CL,[2]; [4],1070* mL/hr/kg and 579 mL/hr/kg and 1640 mL/hr/kg
same,Cmax,[2]; [4],1460 ng/mL and 2660 ng/mL and 997 ng/mL
same,Dose Normalized AUClast,[2]; [4],740 and 1610 and 595
same,Dose Normalized Cmax,[2]; [4],1460 and 2660 and 997
same,Tmax,[2]; [4],2 min
same,Vss,[2]; [4],1530* mL/kg and 1260 mL/kg and 1510 mL/kg
same,AUC0-24hr,"[2]; IV infusion 3 mg/kg, Mean",7580 ng·h/mL
same,AUCinf,"[2]; IV infusion 3 mg/kg, Mean",7710 ng·h/mL
same,AUCinf Extrapolated,"[2]; IV infusion 3 mg/kg, Mean",1.5%
same,AUClast,"[2]; IV infusion 3 mg/kg, Mean",7580 ng·h/mL
same,Cmax,"[2]; IV infusion 3 mg/kg, Mean",10300 ng/mL
same,Dose Normalized AUClast,"[2]; IV infusion 3 mg/kg, Mean",2530
same,Dose Normalized Cmax,"[2]; IV infusion 3 mg/kg, Mean",3450
same,T1/2,"[2]; IV infusion 3 mg/kg, Mean",5.2 h
same,Vss,"[2]; IV infusion 3 mg/kg, Mean",1290 mL/kg
same,AUC0-24hr,[2]; [5],6650 ng·h/mL and 11000 ng·h/mL and 5120 ng·h/mL
same,AUCinf,[2]; [5],6730 ng·h/mL and 11200 ng·h/mL and 5180 ng·h/mL
same,AUCinf Extrapolated,[2]; [5],1.2% and 2.3% and 1.1%
same,AUClast,[2]; [5],6650 ng·h/mL and 11000 ng·h/mL and 5120 ng·h/mL
same,CL,[2]; [5],446 mL/h/kg and 267 mL/h/kg and 580 mL/h/kg
same,Cmax,[2]; [5],6830 ng/mL and 15500 ng/mL and 8690 ng/mL
same,Dose Normalized AUClast,[2]; [5],2220 and 3660 and 1710
same,Dose Normalized Cmax,[2]; [5],2280 and 5170 and 2900
same,T1/2,[2]; [5],4.4 h and 6.3 h and 5 h
same,Tmax,[2]; [5],2 min and 1.5 min
same,Vss,[2]; [5],1580 mL/kg and 905 mL/kg and 1370 mL/kg
same,AUC0-24hr,"[2]; IV infusion 10 mg/kg, Mean",50300 ng·h/mL
same,AUCinf,"[2]; IV infusion 10 mg/kg, Mean",50800 ng·h/mL
same,AUCinf Extrapolated,"[2]; IV infusion 10 mg/kg, Mean",1.3%
same,AUClast,"[2]; IV infusion 10 mg/kg, Mean",50300 ng·h/mL
same,Cmax,"[2]; IV infusion 10 mg/kg, Mean",38200 ng/mL
same,Dose Normalized AUClast,"[2]; IV infusion 10 mg/kg, Mean",5030
same,Dose Normalized Cmax,"[2]; IV infusion 10 mg/kg, Mean",3820
same,T1/2,"[2]; IV infusion 10 mg/kg, Mean",4.6 h
same,Vss,"[2]; IV infusion 10 mg/kg, Mean",1260 mL/kg
same,AUCinf Extrapolated,[2]; [6],1.0% and 1.8% and 0.99%
same,Cmax,[2]; [6],26000 ng/mL and 24300 ng/mL and 64300 ng/mL
same,Dose Normalized Cmax,[2]; [6],2600 and 2430 and 6430
same,T1/2,[2]; [6],4.3 h and 4.9 h and 4.6 h
same,Tmax,[2]; [6],2 min
same,Mode (MIC),[3],16 µg/mL
